From patent publication US20250179061A1 (SIRONAX LTD., priority 2022, published 2025)

These compounds were tested on HT-29 cells (assay: HT-29 necroptosis cell viability assay (TNF-α/SMAC mimetic/zVAD-FMK, CellTiter-Glo)). Conditions: Homo sapiens, HT-29, HT-29 necroptosis cell viability assay; class symbols for IC50; read-out: Activity.
Assay type: cell-based
Summary of the method: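 HT-29 cells (~5,000/well, overnight) in FBS-free McCoy's 5A with TNF-α 10 ng/ml, SMAC mimetic 6 μM and zVAD-FMK 10 μM plus 10-point 1:3 compound titration, 20 h at 37°C. ATP measured by CellTiter-Glo luminescence; IC50 as geometric mean of duplicates.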

Row | SMILES | IC50 [nM]
1 | COC(=O)c1cnc(Oc2ccc(-n3ncn(Cc4c(F)cccc4F)c3=O)cc2F)n1C [Example 173, methyl 2-(4-(4-(2,6-difluorobenzyl)-5-oxo-4,5-dihydro-1H-1,2,4-triazol-1-yl)-2-fluorophenoxy)-1-methyl-1H-imidazole-5-carboxylate] | 100 to 1000
2 | CC(=O)c1nc(C)c(Oc2ccc(-n3ncn(Cc4c(F)cccc4F)c3=O)cc2F)n1C [Example 174, 2-(4-((2-acetyl-1,4-dimethyl-1H-imidazol-5-yl)oxy)-3-fluorophenyl)-4-(2,6-difluorobenzyl)-2,4-dihydro-3H-1,2,4-triazol-3-one] | < 100
3 | Cc1cnn(C)c1Oc1ccc(-n2nc3n(c2=O)C(c2ccccc2)CC3)cc1F (stereo not drawn) [Example 175, 2-(4-((1,4-dimethyl-1H-pyrazol-5-yl)oxy)-3-fluorophenyl)-5-phenyl-2,5,6,7-tetrahydro-3H-pyrrolo[2,1-c][1,2,4]triazol-3-one] | < 100
4 | Cc1cnn(C)c1Oc1ccc(-n2ncn(Cc3c(F)cccc3F)c2=O)cc1 [Example 176, 4-(2,6-difluorobenzyl)-2-(4-((1,4-dimethyl-1H-pyrazol-5-yl)oxy)phenyl)-2,4-dihydro-3H-1,2,4-triazol-3-one] | < 100
5 | Cc1nn(C2COC2)c(C)c1Oc1ccc(-n2ncn(Cc3c(F)cccc3F)c2=O)cc1F [Example 177, 4-(2,6-difluorobenzyl)-2-(4-((3,5-dimethyl-1-(oxetan-3-yl)-1H-pyrazol-4-yl)oxy)-3-fluorophenyl)-2,4-dihydro-3H-1,2,4-triazol-3-one] | < 100
6 | Cc1n[nH]c(C)c1Oc1ccc(-n2ncn(Cc3c(F)cccc3F)c2=O)cc1F [Example 178, 4-(2,6-difluorobenzyl)-2-(4-((3,5-dimethyl-1H-pyrazol-4-yl)oxy)-3-fluorophenyl)-2,4-dihydro-3H-1,2,4-triazol-3-one] | < 100
7 | Cc1nn(CC2COC2)c(C)c1Oc1ccc(-n2ncn(Cc3c(F)cccc3F)c2=O)cc1F [Example 179, 4-(2,6-difluorobenzyl)-2-(4-((3,5-dimethyl-1-(oxetan-3-ylmethyl)-1H-pyrazol-4-yl)oxy)-3-fluorophenyl)-2,4-dihydro-3H-1,2,4-triazol-3-one] | < 100
8 | Cc1nn(CCO)c(C)c1Oc1ccc(-n2ncn(Cc3c(F)cccc3F)c2=O)cc1F [Example 180, 4-(2,6-difluorobenzyl)-2-(3-fluoro-4-((1-(2-hydroxyethyl)-3,5-dimethyl-1H-pyrazol-4-yl)oxy)phenyl)-2,4-dihydro-3H-1,2,4-triazol-3-one] | < 100
9 | CCOC(=O)c1nc(Oc2ccc(-n3ncn(Cc4c(F)cccc4F)c3=O)cc2F)n(C)c1C [Example 181, ethyl 2-(4-(4-(2,6-difluorobenzyl)-5-oxo-4,5-dihydro-1H-1,2,4-triazol-1-yl)-2-fluorophenoxy)-1,5-dimethyl-1H-imidazole-4-carboxylate] | 100 to 1000
10 | CCOC(=O)c1c(C)nc(Oc2ccc(-n3ncn(Cc4c(F)cccc4F)c3=O)cc2F)n1C [Example 182, ethyl 2-(4-(4-(2,6-difluorobenzyl)-5-oxo-4,5-dihydro-1H-1,2,4-triazol-1-yl)-2-fluorophenoxy)-1,4-dimethyl-1H-imidazole-5-carboxylate] | 100 to 1000
11 | CCOC1CN(c2nc(C)c(Oc3ccc(-n4ncn(Cc5c(F)cccc5F)c4=O)cc3)n2C)C1 [Example 183, 4-(2,6-difluorobenzyl)-2-(4-((2-(3-ethoxyazetidin-1-yl)-1,4-dimethyl-1H-imidazol-5-yl)oxy)phenyl)-2,4-dihydro-3H-1,2,4-triazol-3-one] | < 100
12 | Cc1nn(Cc2ccc(-n3ncn(Cc4c(F)cccc4F)c3=O)cc2)cc1Br [Example 184, 2-(4-((4-bromo-3-methyl-1H-pyrazol-1-yl)methyl)phenyl)-4-(2,6-difluorobenzyl)-2,4-dihydro-3H-1,2,4-triazol-3-one] | < 100
13 | Cc1ncc(C#N)n1Cc1ccc(-n2ncn(Cc3c(F)cccc3F)c2=O)cc1 [Example 185, 1-(4-(4-(2,6-difluorobenzyl)-5-oxo-4,5-dihydro-1H-1,2,4-triazol-1-yl)benzyl)-2-methyl-1H-imidazole-5-carbonitrile] | 100 to 1000
14 | Cc1nc(C#N)cn1Cc1ccc(-n2ncn(Cc3c(F)cccc3F)c2=O)cc1 [Example 186, 1-(4-(4-(2,6-difluorobenzyl)-5-oxo-4,5-dihydro-1H-1,2,4-triazol-1-yl)benzyl)-2-methyl-1H-imidazole-4-carbonitrile] | < 100
15 | Cc1nccn1Cc1ccc(-n2ncn(Cc3c(F)cccc3F)c2=O)cc1 [Example 187, 4-(2,6-difluorobenzyl)-2-(4-((2-methyl-1H-imidazol-1-yl)methyl)phenyl)-2,4-dihydro-3H-1,2,4-triazol-3-one] | 100 to 1000
16 | Cc1cc(C)n(Cc2ccc(-n3ncn(Cc4c(F)cccc4F)c3=O)cc2)c1 [Example 188, 4-(2,6-difluorobenzyl)-2-(4-((2,4-dimethyl-1H-pyrrol-1-yl)methyl)phenyl)-2,4-dihydro-3H-1,2,4-triazol-3-one] | 100 to 1000
17 | Cc1nn(Cc2ccc(-n3ncn(Cc4c(F)cccc4F)c3=O)cc2)c(C)c1C [Example 189, 4-(2,6-difluorobenzyl)-2-(4-((3,4,5-trimethyl-1H-pyrazol-1-yl)methyl)phenyl)-2,4-dihydro-3H-1,2,4-triazol-3-one] | < 100

Row | SMILES | IC50 [nM]
18 | Cc1nn(Cc2ccc(-n3ncn(Cc4c(F)cccc4F)c3=O)cc2)cc1C#N [Example 190, 1-(4-(4-(2,6-difluorobenzyl)-5-oxo-4,5-dihydro-1H-1,2,4-triazol-1-yl)benzyl)-3-methyl-1H-pyrazole-4-carbonitrile] | < 100
19 | Cc1c(C#N)cnn1Cc1ccc(-n2ncn(Cc3c(F)cccc3F)c2=O)cc1 [Example 191, 1-(4-(4-(2,6-difluorobenzyl)-5-oxo-4,5-dihydro-1H-1,2,4-triazol-1-yl)benzyl)-5-methyl-1H-pyrazole-4-carbonitrile] | < 100
20 | Cc1ccn(Cc2ccc(-n3ncn(Cc4c(F)cccc4F)c3=O)cc2)n1 [Example 192, 4-(2,6-difluorobenzyl)-2-(4-((3-methyl-1H-pyrazol-1-yl)methyl)phenyl)-2,4-dihydro-3H-1,2,4-triazol-3-one] | < 100
21 | Cc1nn(Cc2ccc(-n3ncn(Cc4c(F)cccc4F)c3=O)cc2)c(C)c1N [Example 193, 2-(4-((4-amino-3,5-dimethyl-1H-pyrazol-1-yl)methyl)phenyl)-4-(2,6-difluorobenzyl)-2,4-dihydro-3H-1,2,4-triazol-3-one] | 1000 to 10000
22 | N#Cc1cccn(Cc2ccc(-n3ncn(Cc4c(F)cccc4F)c3=O)cc2)c1=O [Example 194, 1-(4-(4-(2,6-difluorobenzyl)-5-oxo-4,5-dihydro-1H-1,2,4-triazol-1-yl)benzyl)-2-oxo-1,2-dihydropyridine-3-carbonitrile] | 1000 to 10000
23 | N#Cc1ccc(=O)n(Cc2ccc(-n3ncn(Cc4c(F)cccc4F)c3=O)cc2)c1 [Example 195, 1-(4-(4-(2,6-difluorobenzyl)-5-oxo-4,5-dihydro-1H-1,2,4-triazol-1-yl)benzyl)-6-oxo-1,6-dihydropyridine-3-carbonitrile] | 100 to 1000
24 | CCOC(=O)c1ncn(Cc2ccc(-n3ncn(Cc4c(F)cccc4F)c3=O)cc2F)c1C [Example 196, ethyl 1-(4-(4-(2,6-difluorobenzyl)-5-oxo-4,5-dihydro-1H-1,2,4-triazol-1-yl)-2-fluorobenzyl)-5-methyl-1H-imidazole-4-carboxylate] | < 100
25 | CCOC(=O)c1cc(C)nn1Cc1ccc(-n2ncn(Cc3c(F)cccc3F)c2=O)cc1F [Example 197, ethyl 1-(4-(4-(2,6-difluorobenzyl)-5-oxo-4,5-dihydro-1H-1,2,4-triazol-1-yl)-2-fluorobenzyl)-3-methyl-1H-pyrazole-5-carboxylate] | < 100
26 | CCOC(=O)c1cc(C)n(Cc2ccc(-n3ncn(Cc4c(F)cccc4F)c3=O)cc2F)n1 [Example 198, ethyl 1-(4-(4-(2,6-difluorobenzyl)-5-oxo-4,5-dihydro-1H-1,2,4-triazol-1-yl)-2-fluorobenzyl)-5-methyl-1H-pyrazole-3-carboxylate] | 100 to 1000
27 | CCOC(=O)c1nc(C)nn1Cc1ccc(-n2ncn(Cc3c(F)cccc3F)c2=O)cc1F [Example 201] | 100 to 1000
28 | CCOC(=O)c1nn(Cc2ccc(-n3ncn(Cc4c(F)cccc4F)c3=O)cc2F)c(C)c1C [Example 202, ethyl 1-(4-(4-(2,6-difluorobenzyl)-5-oxo-4,5-dihydro-1H-1,2,4-triazol-1-yl)-2-fluorobenzyl)-4,5-dimethyl-1H-pyrazole-3-carboxylate] | < 100
29 | CCOC(=O)c1c(C)c(C)nn1Cc1ccc(-n2ncn(Cc3c(F)cccc3F)c2=O)cc1F [Example 203, ethyl 1-(4-(4-(2,6-difluorobenzyl)-5-oxo-4,5-dihydro-1H-1,2,4-triazol-1-yl)-2-fluorobenzyl)-3,4-dimethyl-1H-pyrazole-5-carboxylate] | 100 to 1000
30 | CCOC(=O)c1cc(C)n(Cc2ccc(-n3ncn(Cc4c(F)cccc4F)c3=O)cc2F)c1 [Example 204, ethyl 1-(4-(4-(2,6-difluorobenzyl)-5-oxo-4,5-dihydro-1H-1,2,4-triazol-1-yl)-2-fluorobenzyl)-5-methyl-1H-pyrrole-3-carboxylate] | < 100
31 | COC(=O)c1cc(C)n(Cc2ccc(-n3ncn(Cc4c(F)cccc4F)c3=O)cc2F)c1C [Example 205, methyl 1-(4-(4-(2,6-difluorobenzyl)-5-oxo-4,5-dihydro-1H-1,2,4-triazol-1-yl)-2-fluorobenzyl)-2,5-dimethyl-1H-pyrrole-3-carboxylate] | < 100
32 | Cc1ccc(C#N)n1Cc1ccc(-n2ncn(Cc3c(F)cccc3F)c2=O)cc1 [Example 206, 1-(4-(4-(2,6-difluorobenzyl)-5-oxo-4,5-dihydro-1H-1,2,4-triazol-1-yl)benzyl)-5-methyl-1H-pyrrole-2-carbonitrile] | 100 to 1000
33 | Cc1ccc(C)n1Cc1ccc(-n2ncn(Cc3c(F)cccc3F)c2=O)cc1 [Example 207, 4-(2,6-difluorobenzyl)-2-(4-((2,5-dimethyl-1H-pyrrol-1-yl)methyl)phenyl)-2,4-dihydro-3H-1,2,4-triazol-3-one] | < 100
